Each block holds one compound with its values, some of them ahead of it.
Key:
ItypOR46 [1] = target: T1, ItypOR46 (Ips typographus, UniProt A0A7L8XZ66); assay: two-electrode voltage clamp dose-response in Xenopus oocytes (secondary response; not significant in HEK cells); format: cell-based
T1 construct: with ItypOrco
T1 sequence (A0A7L8XZ66 1-408): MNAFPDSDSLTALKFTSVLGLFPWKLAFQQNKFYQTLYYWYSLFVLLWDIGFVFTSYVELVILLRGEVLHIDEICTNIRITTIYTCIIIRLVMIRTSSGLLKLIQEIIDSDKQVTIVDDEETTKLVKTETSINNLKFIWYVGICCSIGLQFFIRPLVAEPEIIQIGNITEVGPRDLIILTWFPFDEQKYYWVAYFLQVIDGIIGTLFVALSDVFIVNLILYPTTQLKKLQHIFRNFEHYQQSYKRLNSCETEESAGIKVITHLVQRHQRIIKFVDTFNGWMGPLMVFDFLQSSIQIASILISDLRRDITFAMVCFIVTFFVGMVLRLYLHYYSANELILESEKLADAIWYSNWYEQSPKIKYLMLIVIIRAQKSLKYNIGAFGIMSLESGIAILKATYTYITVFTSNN

ItypOR49 = target: T2, ItypOR49 (Ips typographus, UniProt A0A7L8XYT4); assay: calcium fluorescence dose-response in TREx/HEK293 cells; format: cell-based
T2 construct: gene OR49; full-length, N-terminal V5 tag; with ItypOrco
T2 sequence (A0A7L8XYT4 1-406): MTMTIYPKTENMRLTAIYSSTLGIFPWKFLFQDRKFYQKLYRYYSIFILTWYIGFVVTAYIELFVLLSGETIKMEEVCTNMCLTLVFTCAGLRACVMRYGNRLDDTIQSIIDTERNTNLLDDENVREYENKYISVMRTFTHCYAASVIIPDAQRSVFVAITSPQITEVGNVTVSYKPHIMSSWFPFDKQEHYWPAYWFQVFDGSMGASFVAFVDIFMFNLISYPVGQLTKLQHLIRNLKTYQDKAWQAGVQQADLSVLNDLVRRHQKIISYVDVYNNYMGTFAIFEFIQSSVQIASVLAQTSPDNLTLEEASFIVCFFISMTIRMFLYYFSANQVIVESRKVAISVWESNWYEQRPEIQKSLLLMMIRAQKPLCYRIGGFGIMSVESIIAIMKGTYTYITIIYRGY
T2 sequence (A0A7L8XYY7 1-480 partner): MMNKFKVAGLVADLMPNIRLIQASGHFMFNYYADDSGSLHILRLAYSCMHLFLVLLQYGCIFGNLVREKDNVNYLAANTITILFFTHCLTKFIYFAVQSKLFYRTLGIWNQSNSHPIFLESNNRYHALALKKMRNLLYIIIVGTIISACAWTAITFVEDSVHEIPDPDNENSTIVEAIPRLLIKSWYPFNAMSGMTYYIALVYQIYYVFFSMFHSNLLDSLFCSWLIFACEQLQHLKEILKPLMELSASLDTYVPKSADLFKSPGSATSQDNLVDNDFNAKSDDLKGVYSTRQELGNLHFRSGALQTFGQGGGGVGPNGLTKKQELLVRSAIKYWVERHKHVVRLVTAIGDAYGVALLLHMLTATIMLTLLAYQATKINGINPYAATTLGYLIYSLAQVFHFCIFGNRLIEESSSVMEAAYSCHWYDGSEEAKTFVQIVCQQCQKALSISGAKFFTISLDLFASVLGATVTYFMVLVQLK

ItypOR46 [2] = system: T3, ItypOR46; assay: calcium fluorescence assay in TREx/HEK293 cells; also Xenopus oocyte two-electrode voltage clamp; site-directed mutagenesis; format: cell-based, Ips typographus
T3 construct: gene OR46; full-length, N-terminal V5 tag; with ItypOrco

ItypOrco = target: T4, ItypOrco (Ips typographus, UniProt A0A7L8XYY7); assay: calcium fluorescence dose-response in TREx/HEK293 cells expressing only ItypOrco; format: cell-based
T4 construct: full-length, N-terminal c-Myc tag
T4 sequence (A0A7L8XYY7 1-480): T2 sequence (A0A7L8XYY7 1-480 partner)

SMILES: C=CC(=C)C[C@@H](O)C=C(C)C [(R)-(−)-ipsdienol]
- two-electrode voltage clamp dose-response in Xenopus oocytes (secondary response) (ItypOR46 [1]): secondary response of ItypOR46 to racemic ipsdienol is mainly triggered by the (R)-(−)-enantiomer
- EC50 (ItypOR49): 9.47 µM

SMILES: C=CC(=C)C[C@@H](O)CC(C)C [(S)-(−)-ipsenol]
- EC50 (ItypOR46 [2]): 1.98 µM

- EC50 (ItypOrco): 24.5 µM
SMILES: CCc1ccc(NC(=O)CSc2nnc(-c3cccnc3)n2CC)cc1 [VUAA1]
